Our source for the IC50 values is ChEMBL document CHEMBL1128207 (J Med Chem, 1995).

The target of the first test is Progesterone receptor (Oryctolagus cuniculus) (UniProt P06186). Briefly: Binding affinity towards rabbit progesterone receptor.
What is called IC50 is the concentration that inhibits the measured activity by half. In the case of `O=C(c1ccc([N+](=O)[O-])cc1)N1CCCC(c2ccc(F)cc2)=N1`, the IC50 stood at 1020 nM.
`O=C(c1ccc(Cl)c(Cl)c1)N1CCCC(c2ccc(F)cc2)=N1` gave an IC50 of 250 nM.
On the same count and under the same terms, the result for `O=C(c1ccc([N+](=O)[O-])cc1)N1CCCC(c2ccc(Cl)c(Cl)c2)=N1` reads 100 nM; that for `O=C(c1cc(Cl)cc(Cl)c1)N1CCCC(c2ccc(Br)cc2)=N1`, 470 nM.
On the same count and under the same terms, for `O=C(c1ccc([N+](=O)[O-])cc1)N1CCCC(c2ccc(Cl)cc2)=N1` the value was 270 nM; for `O=C(c1ccc(Cl)c(Cl)c1)N1CCCC(c2ccccc2)=N1`, 4000 nM.
For the molecule `O=C(c1ccc(Cl)cc1)N1CCCC(c2ccc(Cl)cc2)=N1`, the IC50 came out at 4000 nM.
`O=C(c1ccc(Cl)c(Cl)c1)N1CCCC(c2ccc(Cl)c(Cl)c2)=N1` returned an IC50 of 100 nM.

For a further test the target is unchanged. In words: Binding affinity towards rabbit progesterone receptor; not active.
In the case of `O=C(c1ccc(Br)cc1)N1CCCC(c2ccccc2)=N1`, the IC50 entry is “Not Active”.
On to `COc1ccc(C(=O)N2CCCC(c3ccc(OC)cc3)=N2)cc1`, for which the IC50 result is on record as “Not Active”.
With `COc1ccc(C2=NN(C(=O)c3ccc(Cl)cc3)CCC2)cc1`, the IC50 entry is “Not Active”.
On to `COc1ccc(C2=NN(C(=O)c3ccc(Cl)c(Cl)c3)CCC2)cc1`, for which the IC50 entry is reported as “Not Active”.
Take `COc1ccc(C2=NN(C(=O)c3ccc(C(C)(C)C)cc3)CCC2)cc1`: the IC50 entry is “Not Active”.
On the same count and under the same terms, for `CC(C)(C)c1ccc(C(=O)N2CCCC(c3ccccc3)=N2)cc1` the value was “Not Active”; for `COc1ccc(C2=NN(C(=O)c3ccc(Br)cc3)CCC2)cc1`, “Not Active”.
With `O=C(c1cccc(Cl)c1)N1CCCC(c2ccc(Cl)cc2)=N1`, the IC50 result was “Not Active”.
With `COc1ccc(C(=O)N2CCCC(c3ccccc3)=N2)cc1`, the IC50 entry was “Not Active”.
On the same count and under the same terms, the result for `COc1ccc(C2=NN(C(=O)c3ccc(C)cc3)CCC2)cc1` reads “Not Active”; that for `O=C(c1cccc(Cl)c1)N1CCCC(c2ccccc2)=N1`, “Not Active”.
Take `O=C(c1ccc(Cl)cc1)N1CCCC(c2ccccc2)=N1`: the IC50 result was “Not Active”.
Consider `Cc1ccc(C(=O)N2CCCC(c3ccc(Cl)cc3)=N2)cc1`, for which the IC50 result is given as “Not Active”.
For `O=C(c1ccccc1)N1CCCC(c2ccc(Cl)cc2)=N1`, the IC50 entry is “Not Active”.
For `COc1ccc(C2=NN(C(=O)c3ccccc3)CCC2)cc1`, the IC50 entry is given as “Not Active”.
With `COc1ccc(C(=O)N2CCCC(c3ccc(Cl)cc3)=N2)cc1`, the IC50 result is listed as “Not Active”.
Still for that read-out and setting: for `CC(C)(C)c1ccc(C(=O)N2CCCC(c3ccc(Cl)cc3)=N2)cc1` the value was “Not Active”; for `COc1ccc(C2=NN(C(=O)c3cccc(Cl)c3)CCC2)cc1`, “Not Active”; for `Cc1ccc(C(=O)N2CCCC(c3ccccc3)=N2)cc1`, “Not Active”.
For the molecule `O=C(c1ccccc1)N1CCCC(c2ccccc2)=N1`, the IC50 result is listed as “Not Active”.
